The term IC50 denotes the concentration that inhibits the measured activity by half.

The subject of this test is production of TNF by monocytes activated with bacterial lipopolysaccharide (LPS). The test is described as follows: Lipopolysaccharide-activated monocyte TNF production assay. The test is classed as cell-based. As to conditions: Homo sapiens; whole blood monocyte assay (LPS induced TNF release). In short, it runs like this: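 Adherent human PBMC-derived monocytes preincubated 60 min with nine two-fold compound dilutions, then stimulated with E. coli K532 LPS (30 ng/mL in the added medium) for 4 h at 37 °C. Supernatant TNF measured by sandwich ELISA; IC50 is the compound concentration halving TNF production, from second-order polynomial fits.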
Consider `COc1cccc(-c2nncc3cc(-c4cc(C(N)=O)ccc4C)ccc23)c1OC` [Example 198, 3-[1-(2,3-dimethoxyphenyl)phthalazin-6-yl]-4-methylbenzamide], for which the IC50 was ≤ 5 µM.

`Cc1ccccc1-c1ccc2c(N3CCOCC3c3ccc(F)cc3)nncc2c1` (stereo not shown) [Example 398, 1-[3-(4-fluorophenyl)morpholin-4-yl]-6-(2-methylphenyl)phthalazine]: the IC50 was ≤ 5 µM.

As to `Cc1ccc(S(N)(=O)=O)cc1-c1ccc2c(N3CCOCC3)nncc2c1` [Example 106, 4-Methyl-3-(1-morpholinophthalazin-6-yl)benzenesulfonamide], the IC50 was ≤ 5 µM.

In the case of `Cc1ccc(C(=O)NC(C)C)cc1-c1ccc2c(N3CCOCC3)nncc2c1` [Example 405, N-isopropyl-4-methyl-3-(1-morpholin-4-ylphthalazin-6-yl)benzamide], the IC50 was ≤ 5 µM.

As for `Cc1ccc(C(=S)NC2CC2)cc1-c1ccc2c(N3CCOCC3)nncc2c1` [Example 109, N-Cyclopropyl-4-methyl-3-(1-morpholinophthalazin-6-yl)benzothioamide], the IC50 is ≤ 5 µM.

As to `Fc1ccc(Oc2ccc3c(-c4ccccc4C(F)(F)F)nncc3c2)cc1` [Example 339, 6-(4-fluorophenoxy)-1-[2-(trifluoromethyl)phenyl]phthalazine], the IC50 was ≤ 5 µM.

Regarding `Cc1ccc(C(N)=O)cc1-c1ccc2c(N(C)C3CCCCC3)nncc2c1` [Example 291, 3-{1-[cyclohexyl(methyl)amino]phthalazin-6-yl}-4-methylbenzamide], the IC50 is ≤ 5 µM.

On to `Cc1ccc(C(N)=O)cc1-c1ccc2c(N3CCOC[C@H]3C)nncc2c1` [Example 82, 4-Methyl-3-{1-[(3R)-3-methylmorpholin4-yl]phthalazin-6-yl}benzamide], for which the IC50 is ≤ 5 µM.

For `CONC(=O)c1ccc(C)c(-c2ccc3c(NC(C)C)nncc3c2)c1` [Example 279, 3-[1-(isopropylamino)phthalazin-6-yl]-N-methoxy-4-methylbenzamide], the IC50 is ≤ 5 µM.

In the case of `Cc1ccc(C(N)=O)cc1-c1ccc2c(N3CCCOCC3)nncc2c1` [Example 270, 4-methyl-3-[1-(1,4-oxazepan-4-yl)phthalazin-6-yl]benzamide], the IC50 is ≤ 5 µM.

`Cc1ccccc1Oc1nncc2cc(-c3cc(C(N)=O)ccc3C)ccc12` [Example 299, 4-methyl-3-[1-(2-methylphenoxy)phthalazin-6-yl]benzamide]: the IC50 was ≤ 5 µM.

In the case of `CNc1noc2c(-c3ccc4c(O[C@@H](C)COC)nncc4c3)c(C)ccc12` [Example 330, N,6-dimethyl-7-(1-(((1S)-1-methyl-2-(methyloxy)ethyl)oxy)-6-phthalazinyl)-1,2-benzisoxazol-3-amine], the IC50 was ≤ 5 µM.

On to `CCOC(=O)N1CCN(c2nncc3cc(-c4cc(C(=O)NC5CC5)ccc4C)ccc23)[C@@H](C)C1` [Example 379, ethyl(3S)-4-(6-{5-[(cyclopropylamino)carbonyl]-2-methylphenyl}phthalazin-1-yl)-3-methylpiperazine-1-carboxylate], for which the IC50 is ≤ 5 µM.

`Cc1ccc(S(C)(=O)=O)cc1-c1ccc2c(N3CCOCC3)nncc2c1` [Example 195, 6-[2-methyl-5-(methylsulfonyl)phenyl]-1-morpholin-4-ylphthalazine]: the IC50 is ≤ 5 µM.

With `Cc1ccc(Oc2ccc3c(-c4ccccc4Cl)nncc3c2)cc1` [Example 346, 1-(2-chlorophenyl)-6-(4-methylphenoxy)phthalazine], the IC50 was ≤ 5 µM.

As for `Cc1ccccc1-c1nncc2cc(Oc3ccc(F)cc3)ccc12` [Example 340, 6-(4-fluorophenoxy)-1-(2-methylphenyl)phthalazine], the IC50 was ≤ 5 µM.

As to `CC[C@H](C)Nc1nncc2cc(-c3cc(C(N)=O)ccc3C)ccc12` [Example 303, 4-methyl-3-(1-{[(1S)-1-methylpropyl]amino}phthalazin-6-yl)benzamide], the IC50 is ≤ 5 µM.

Turning to `Cc1ccc(C(=O)NC2CC2)cc1-c1ccc2c(N3CCOC[C@H]3C)nncc2c1` [Example 75, N-Cyclopropyl-4-methyl-3-{1-[(3R)-3-methylmorpholin-4-yl]phthalazin-6-yl}benzamide], the 50% inhibitory concentration (IC50) was ≤ 5 µM.

As for `CCNC(=O)c1ccc(C)c(-c2ccc3c(C(C)C)nncc3c2)c1` [Example 363, N-ethyl-3-(1-isopropylphthalazin-6-yl)-4-methylbenzamide], the IC50 was ≤ 5 µM.

With `Cc1ccc(C(=O)NC2CC2)cc1-c1ccc2c(N3C[C@@H]4C[C@H]3CN4C(=O)OC(C)(C)C)nncc2c1` [Example 126, tert-butyl (1S,4S)-5-(6-{5-[(cyclopropylamino)carbonyl]-2-methylphenyl}phthalazin-1-yl)-2,5-diazabicyclo[2.2.1]heptane-2-carboxylate], the IC50 was ≤ 5 µM.

With `COc1ccc(-c2nncc3cc(-c4cc(C(N)=O)ccc4C)ccc23)c(Cl)c1` [Example 229, 3-[1-(2-chloro-4-methoxyphenyl)phthalazin-6-yl]-4-methylbenzamide], the half-maximal inhibitory concentration (IC50) is ≤ 5 µM.

For `O=C(NC1CC1)c1ccc(F)c(-c2ccc3c(N4CCOCC4)nncc3c2)c1` [Example 72, N-Cyclopropyl-4-fluoro-3-(1-morpholin-4-ylphthalazin-6-yl)benzamide], the IC50 is ≤ 5 µM.

Take `CC(=O)N1CCN(c2nncc3cc(-c4cc(C(=O)NC5CC5)ccc4C)ccc23)CC1` [Example 157, 3-[1-(4-acetylpiperazin-1-yl)phthalazin-6-yl]-N-cyclopropyl-4-methylbenzamide]: the IC50 is ≤ 5 µM.

`Cc1ccc(C(=O)NC2CC2)cc1-c1ccc2c(N3[C@H](C)CC[C@H]3C)nncc2c1` [Example 395, N-cyclopropyl-3-{1-[(2R,5R)-2,5-dimethylpyrrolidin-1-yl]phthalazin-6-yl}-4-methylbenzamide]: the IC50 is ≤ 5 µM.

For `Cc1ccc(C(N)=O)cc1-c1ccc2c(N3CCN4C(=O)OC[C@@H]4C3)nncc2c1` [Example 280, 3-{1-[(8aS)-3-oxotetrahydro[1,3]oxazolo[3,4-a]pyrazin-7(1H)-yl]phthalazin-6-yl}-4-methylbenzamide], the IC50 is ≤ 5 µM.

Regarding `Cc1cc(F)c(C(=O)NC2CC2)cc1-c1ccc2c(N3C[C@@H](C)OC[C@H]3C)nncc2c1` [Example 135, N-cyclopropyl-5-{1-[(2R,5R)-2,5-dimethylmorpholin-4-yl]phthalazin-6-yl}-2-fluoro-4-methylbenzamide], the IC50 was ≤ 5 µM.

For `CC(=O)Nc1noc2c(-c3ccc4c(N5CCOC[C@@H]5C)nncc4c3)c(C)ccc12` [Example 403, N-(6-methyl-7-{1-[(3S)-3-methylmorpholin-4-yl]phthalazin-6-yl}-1,2-benzisoxazol-3-yl)acetamide], the IC50 was ≤ 5 µM.

For the compound `Cc1ccc(C(N)=O)cc1-c1ccc2c(N3CCNC(=O)C3)nncc2c1` [Example 116, 4-methyl-3-[1-(3-oxopiperazin-1-yl)phthalazin-6-yl]benzamide], the IC50 was ≤ 5 µM.

With `Cc1ccc(C(N)=O)cc1-c1ccc2c(-c3ccc(C(F)(F)F)cc3Cl)nncc2c1` [Example 199, 3-{1-[2-chloro-4-(trifluoromethyl)phenyl]phthalazin-6-yl}-4-methylbenzamide], the IC50 is ≤ 5 µM.

Turning to `Cc1ccc(C(=O)NC2CC2)cc1-c1cnc2c(N3CCOCC3)nncc2c1` [Example 276, N-cyclopropyl-4-methyl-3-(8-morpholin-4-ylpyrido[2,3-d]pyridazin-3-yl)benzamide], the IC50 was ≤ 5 µM.

With `CNc1noc2c(-c3ccc4c(-c5ccccc5C)nncc4c3)c(C)ccc12` [Example 396, N,6-dimethyl-7-[1-(2-methylphenyl)phthalazin-6-yl]-1,2-benzisoxazol-3-amine], the IC50 was ≤ 5 µM.

Regarding `Cc1ccc(C(=O)NC2CC2)cc1-c1ccc2c(N3CCN4C(=O)CC[C@H]4C3)nncc2c1` [Example 102, 3-{1-[(8aS)-6-oxohexahydropyrrolo[1,2-a]pyrazin-2(1H)-yl]phthalazin-6-yl}-N-cyclopropyl-4-methylbenzamide], the IC50 is ≤ 5 µM.

Regarding `CC(=O)N1CCN(c2nncc3cc(-c4cc(C(N)=O)ccc4C)ccc23)[C@@H](C)C1` [Example 383, 3-{1-[(2S)-4-acetyl-2-methylpiperazin-1-yl]phthalazin-6-yl}-4-methylbenzamide], the IC50 is ≤ 5 µM.

With `Cc1ccc(C(=O)NC2CC2)cc1-c1ccc2c(N3CCCC(C(N)=O)C3)nncc2c1` (stereo not shown) [Example 29, 1-(6-(5-(cyclopropylcarbamoyl)-2-methylphenyl)phthalazin-1-yl)piperidine-3-carboxamide], the IC50 is ≤ 5 µM.

In the case of `O=C(NC1CC1)c1ccc(Cl)c(-c2ccc3c(N4CCOCC4)nncc3c2)c1` [Example 38, 4-chloro-N-cyclopropyl-3-(1-morpholinophthalazin-6-yl)benzamide], the IC50 is ≤ 5 µM.

On to `CC(=O)c1nnc(C)c2cc(-c3cc(C(=O)NC4CC4)ccc3C)ccc12` [Example 84, 3-(1-Acetyl-4-methylphthalazin-6-yl)-N-cyclopropyl-4-methylbenzamide], for which the IC50 was ≤ 5 µM.

Turning to `CONC(=O)c1ccc(C)c(-c2ccc3c(N4CCOCC4)nncc3c2)c1` [Example 278, N-methoxy-4-methyl-3-(1-morpholin-4-ylphthalazin-6-yl)benzamide], the IC50 was ≤ 5 µM.

With `COc1ccccc1Oc1nncc2cc(-c3cc(C(N)=O)ccc3C)ccc12` [Example 306, 3-[1-(2-methoxyphenoxy)phthalazin-6-yl]-4-methylbenzamide], the IC50 was ≤ 5 µM.

Consider `Cc1ccc(C(=O)NC2CC2)cc1-c1ccc2c(N3CCN[C@@H](C)C3)nncc2c1` [Example 149, N-cyclopropyl-4-methyl-3-{1-[(3S)-3-methylpiperazin-1-yl]phthalazin-6-yl}benzamide], for which the IC50 was ≤ 5 µM.

On to `Cc1ccc(C(N)=O)cc1-c1ccc2c(Cl)nncc2c1` [Example 145, 3-(1-chlorophthalazin-6-yl)-4-methylbenzamide], for which the IC50 was ≤ 5 µM.

These data come from US7759337B2, “Phthalazine compounds and methods of use” (Amgen Inc., priority 2005, dated 2010).
